Laboratory results from patent US11247981B2, “Metalloenzyme inhibitor compounds” (Mycovia Pharmaceuticals, Inc., priority 2012, dated 2022).
Values after ≈ are worked out from the molar mass of the structure shown.

These compounds were tested on C. albicans (assay: Minimum Inhibitory Concentration (MIC), CLSI M27-A2). Details: Candida albicans, rating scale in μg/mL.
Assay type: cell-based
Experimental: A. Minimum Inhibitory Concentration (MIC) Compounds were assessed for their ability to inhibit the growth of common strains of fungus, C. albicans using a standardized procedure (CLSI M27-A2). Stock solutions of the test compounds and standards were prepared in DMSO at 1,600 μg/mL (C. albicans). Eleven, serial, one-half dilutions of compounds were prepared in 96-well plates in RPMI+MOPS. The assay concentration ranges were 8-0.001 μg/mL (C. albicans). Cell suspensions of C. albicans were prepared and added to each well at concentrations of approximately 3.7×10^3 colony-forming-units per milliliter (cfu/mL). All testing was in duplicate. The inoculated plates were incubated for approximately 48 h at 35±1° C. At the completion of incubation the wells of each plate were evaluated visually for the presence of fungal growth. […] For QC purposes C. krusei isolate ATCC 6258 (4.0×10^3 cfu/mL) was included in the VOR assay.

| MIC [µg/mL] | Structure (SMILES) |
| --- | --- |
| 1.5 to 4 (≈ 3.38 to 9.02 µM) | CC(F)(c1ccc(-c2ccc(F)cc2)cn1)C(O)(Cn1cnnn1)c1ccc(F)cc1F (centres unmarked) [Example 50, 2-(2,4-Difluorophenyl)-3-fluoro-3-(5-(4-fluorophenyl)pyridin-2-yl)-1-(1H-tetrazol-1-yl)butan-2-ol] |

Same assay, conditions: rating scale in μg/mL

| Candida MIC Rating | Structure (SMILES) |
| --- | --- |
| C (>1.5 − 4) | CC(F)(c1ccc(-c2ccc(OCC(F)(F)F)cc2)cn1)C(O)(Cn1cnnn1)c1ccc(F)cc1F (centres unmarked) [Example 56, 2-(2,4-Difluorophenyl)-3-fluoro-1-(1H-tetrazol-1-yl)-3-(5-(4-(2,2,2-trifluoroethoxy)phenyl)pyridin-2-yl)butan-2-ol] |
| A (≤0.5) | CC(F)(c1ccc(-c2ccc(OC(F)(F)F)cc2)cn1)C(O)(Cn1cnnn1)c1ccc(F)cc1F (centres unmarked) [Example 47, 2-(2,4-Difluorophenyl)-3-fluoro-1-(1H-tetrazol-1-yl)-3-(5-(4-(trifluoromethoxy)phenyl)-pyridin-2-yl)butan-2-ol] |
| A (≤0.5) | CC(F)(c1ccc(-c2ccc(OCC(F)(F)F)cc2)cn1)C(O)(Cn1cnnn1)c1ccc(F)cc1F (centres unmarked) [Example 57, 2-(2,4-Difluorophenyl)-3-fluoro-1-(1H-tetrazol-1-yl)-3-(5-(4-(2,2,2-trifluoroethoxy)phenyl)pyridin-2-yl)butan-2-ol] |
| A (≤0.5) | CC(F)(c1ccc(-c2ccc(Cl)cc2)cn1)C(O)(Cn1cnnn1)c1ccc(F)cc1F (centres unmarked) [Example 55, 3-(5-(4-Chlorophenyl)pyridin-2-yl)-2-(2,4-difluorophenyl)-3-fluoro-1-(1H-tetrazol-1-yl)butan-2-ol] |
| A (≤0.5) | OC(Cn1cnnn1)(c1ccc(F)cc1F)C(F)(F)c1ccc(-c2ccc(OCC(F)(F)F)cc2)cn1 (centres unmarked) [Example 11, 2-(2,4-Difluorophenyl)-1,1-difluoro-3-(1H-tetrazol-1-yl)-1-(5-(4-(2,2,2-trifluoroethoxy)phenyl)pyridin-2-yl)propan-2-ol] |
| C (>1.5 − 4) | CC(F)(c1ccc(-c2ccc(C(F)(F)F)cc2)cn1)C(O)(Cn1cnnn1)c1ccc(F)cc1F (centres unmarked) [Example 52] |
| A (≤0.5) | CC(F)(c1ccc(-c2ccc(F)cc2)cn1)C(O)(Cn1cnnn1)c1ccc(F)cc1F (centres unmarked) [Example 51, 2-(2,4-Difluorophenyl)-3-fluoro-3-(5-(4-fluorophenyl)pyridin-2-yl)-1-(1H-tetrazol-1-yl)butan-2-ol] |
| C (>1.5 − 4) | OC(Cn1cnnn1)(c1ccc(F)cc1F)C(F)(F)c1ccc(-c2ccc(OCC(F)(F)F)cc2)cn1 (centres unmarked) [Example 39, 2-(2,4-Difluorophenyl)-1,1-difluoro-3-(1H-tetrazol-1-yl)-1-(5-(4-(2,2,2-trifluoroethoxy)phenyl)pyridin-2-yl)propan-2-ol] |
| B (>0.5 − 1.5) | CC(F)(c1ccc(-c2ccc(C(F)(F)F)cc2)cn1)C(O)(Cn1cnnn1)c1ccc(F)cc1F (centres unmarked) [Example 53] |
| C (>1.5 − 4) | CC(F)(c1ccc(-c2ccc(Cl)cc2)cn1)C(O)(Cn1cnnn1)c1ccc(F)cc1F (centres unmarked) [Example 54, 3-(5-(4-Chlorophenyl)pyridin-2-yl)-2-(2,4-difluorophenyl)-3-fluoro-1-(1H-tetrazol-1-yl)butan-2-ol] |
